Like-named read-outs stand apart in the source and are kept apart here.
Legend:
HIV = assay: microbe, parasite or virus in culture; type: cell-based; conditions: Human immunodeficiency virus 1
I84V/L90M = system: I84V/L90M; design: key to the marks not given beside the values
[1] = target: T1, recombinant HIV-1 protease (Human immunodeficiency virus type 1 group M subtype B, UniProt P04585); assay: biochemical; conditions: for IC50: read-out: WT IC50; for Ki: read-out: Ki
T1 construct: Enzyme: recombinant HIV-1 protease expressed in E. Coli; purchased Bachem California, Inc. H-9040; host or cells: E. coli

84V90M [2] = target: T2, 84V90M (Human immunodeficiency virus type 1 group M subtype B, UniProt P04585, I572V/L578M); type: biochemical, HIV; conditions: Enzymatic assay
WT = assay: microbe, parasite or virus in culture; type: cell-based, HIV
30N82I88D = assay: microbe, parasite or virus in culture; type: cell-based, HIV
I50V (#1) = system: I50V (#1); design: key to the marks not given beside the values
[3] = system: mutant HIV-1 with I84V/L90M mutations; assay: microbe, parasite or virus in culture; type: cell-based; conditions: for I84V/L90M fold change: fold difference in EC50 mutant vs wild type, class symbols
in vitro = conditions: human, CC50 (μM)
84V90M [4] = target: T2, 84V90M; assay: biochemical; type: biochemical, HIV; conditions: Enzymatic assay
[5] = system: Recombinant HIV-1 Strains With Resistance Mutations in the Protease Gene; assay: Cross-Resistance Profile Assay, whole panel; type: cell-based; conditions: resistance = 5-fold and higher change in EC50 vs wild type; 11 mutant viruses
84V90M [6] = target: T2, 84V90M; assay: cell-based; design: species or system HIV; conditions: Cell-based assay (MT-4)
48V54V82A = assay: microbe, parasite or virus in culture; type: cell-based, HIV
46I50V = assay: microbe, parasite or virus in culture; type: cell-based, HIV
[7] = system: PBMC in human whole blood
WT HIV-1 = assay: microbe, parasite or virus in culture; conditions: Human immunodeficiency virus 1, read-out: Cell-based assay (MT-4) EC50/nM WT
[8] = system: recombinant HIV-1 10I/48V/54V/82A; assay: microbe, parasite or virus in culture; type: cell-based
[9] = system: recombinant HIV-1 46I/47V/50V; assay: microbe, parasite or virus in culture; type: cell-based
[10] = system: recombinant HIV-1 30N/50S/82I/88D; assay: microbe, parasite or virus in culture; type: cell-based
[11] = system: recombinant HIV-1 10I/48V/71V/82A/90M; assay: microbe, parasite or virus in culture; type: cell-based
[12] = system: recombinant HIV-1 48V/54V/71V/82S; assay: microbe, parasite or virus in culture; type: cell-based
48V54V82S = assay: microbe, parasite or virus in culture; type: cell-based, HIV
48V82A90M = assay: microbe, parasite or virus in culture; type: cell-based, HIV
[13] = system: wild-type HIV-1 strain IIIB; assay: microbe, parasite or virus in culture; type: cell-based; conditions: Human immunodeficiency virus 1, IIIB
[14] = Human immunodeficiency virus 1, read-out: EC50 WT
[15] = Human immunodeficiency virus 1, read-out: EC50 30N 82I88D
[16] = Human immunodeficiency virus 1, read-out: EC50 48V54V 82A
[17] = Human immunodeficiency virus 1, read-out: EC50 46I50V

COc1ccc(S(=O)(=O)N(CC(O)C(Cc2ccccc2)NC(=O)OC2COC3OCCC23)CC(C)(C)COCP(=O)(O)O)cc1 (centres unmarked)
EC50 (HIV): 500 to 5000 nM | I84V/L90M fold change (I84V/L90M): +++

O=C1N(Cc2ccccc2)C(Cc2ccccc2)C(O)C(O)C(Cc2ccccc2)N1Cc1ccccc1 (centres unmarked) [H, Ph, H]
IC50 [1]: 34 nM | IC50 (84V90M [2]): 631 nM | EC50 (WT; [14]): 2490 nM | EC50 (30N82I88D; [15]): 3360 nM

COc1ccc(S(=O)(=O)N(CC(O)C(Cc2ccccc2)NC(=O)OC2COC3OCCC23)CC(C)(C)CCOCP(=O)(OCc2ccccc2)OCc2ccccc2)cc1 (centres unmarked)
EC50 (HIV): < 50 nM | I50V (#1) fold change (I50V (#1)): +++ | I84V/L90M fold change (I84V/L90M): +++

Nc1n[nH]c2ccc(CN3C(=O)N(Cc4cccc(OCP(=O)(O)O)c4)C(Cc4ccccc4)C(O)C(O)C3Cc3ccccc3)cc12 (centres unmarked) [m-OCH2PO3H2]
IC50 (84V90M [2]): 33 nM | EC50 (WT; read-out: EC50 WT): > 12000 nM

CCOP(=O)(COc1ccc(CC(NC(=O)OC2COC3OCCC23)C(O)CN(CC(C)C)S(=O)(=O)c2ccc(OC)cc2)cc1)OCC (centres unmarked) [drawing 1768 R1=OEt R2=OEt]
I84V/L90M fold change [3]: − (≦3) | CC50 (in vitro): 5 to 50 µM

CCOP(=O)(COCC(C)(C)CN(CC(O)C(Cc1ccccc1)NC(=O)OC1COC2OCCC12)S(=O)(=O)c1ccc(OC)cc1)OCC (centres unmarked)
EC50 (HIV): < 50 nM | I84V/L90M fold change (I84V/L90M): +++

COc1ccc(S(=O)(=O)N(CC(O)C(Cc2ccccc2)NC(=O)OC2COC3OCCC23)CC(C)(C)CO)cc1 (centres unmarked)
EC50 (HIV): < 50 nM | I50V (#1) fold change (I50V (#1)): +++ | I84V/L90M fold change (I84V/L90M): +++

O=C1N(Cc2ccccc2)C(Cc2ccccc2)C(O)C(O)C(Cc2ccc(OCP(=O)(O)O)cc2)N1Cc1ccccc1 (centres unmarked) [listing 1 of 2 here]
IC50 (84V90M [4]): 210 nM

CCOC(=O)C(C)OP(=O)(COc1ccc(CC(NC(=O)OC2COC3OCCC23)C(O)CN(CC(C)C)S(=O)(=O)c2ccc(OC)cc2)cc1)Oc1ccccc1 (centres unmarked) [drawing 1775 R1=OPh R2=Lac-Et]
CC50 (MT-2 cells; class symbols): 5000 to 50000 nM

CCCCOC(=O)C(C)NP(=O)(COc1ccc(CC(NC(=O)OC2COC3OCCC23)C(O)CN(CC(C)C)S(=O)(=O)c2ccc(OC)cc2)cc1)NC(C)C(=O)OCCCC (centres unmarked) [GS-16503]
Total No. of Resistant Viruses [5]: 0

COc1ccc(S(=O)(=O)N(CC(O)C(Cc2ccccc2)NC(=O)OC2COC3OCCC23)CC(C)(C)CCOCP(=O)(O)O)cc1 (centres unmarked)
EC50 (HIV): 50 to 500 nM | I50V (#1) fold change (I50V (#1)): ++ | I84V/L90M fold change (I84V/L90M): ++

COc1ccc(S(=O)(=O)N(CC(O)C(Cc2ccccc2)NC(=O)OC2COC3OCCC23)CC(C)(C)COCP(=O)(OCc2ccccc2)OCc2ccccc2)cc1 (centres unmarked)
EC50 (HIV): < 50 nM | I84V/L90M fold change (I84V/L90M): ++

Nc1n[nH]c2ccc(CN3C(=O)N(Cc4cccc(OCP(=O)(OCc5ccccc5)OCc5ccccc5)c4)C(Cc4ccccc4)C(O)C(O)C3Cc3ccccc3)cc12 (centres unmarked)
Ki [1]: 0.177 nM | IC50 [1]: 18 nM | IC50 (84V90M [2]): 43 nM | EC50 (84V90M [6]): > 6000 nM

Nc1n[nH]c2ccc(CN3C(=O)N(Cc4ccc(OCc5ccccc5)cc4)C(Cc4ccccc4)C(O)C(O)C3Cc3ccccc3)cc12 (centres unmarked) [p-OBn]
Ki [1]: > 5 nM | IC50 [1]: 353 nM | EC50 (WT; read-out: EC50 WT): 2120 nM | EC50 (84V90M [6]): 5310 nM

O=C1N(Cc2ccccc2)C(Cc2ccc(O)cc2)C(O)C(O)C(Cc2ccc(O)cc2)N1Cc1ccccc1 (centres unmarked) [OH, Ph, OH]
IC50 [1]: 31 nM | IC50 (84V90M [2]): 397 nM | EC50 (WT; [14]): 117 nM | EC50 (84V90M [6]): 5610 nM | EC50 (30N82I88D; [15]): 756 nM | EC50 (48V54V82A; [16]): 2270 nM | EC50 (46I50V; [17]): 928 nM

CCOP(=O)(COc1ccc(CC2C(O)C(O)C(Cc3ccc(OC)cc3)N(Cc3cccc(N)c3)C(=O)N2Cc2cccc(N)c2)cc1)OCC (centres unmarked) [OCH3, Ph-mNH2, OCH2PO3Et2]
IC50 (84V90M [2]): 56 nM | IC50 (84V90M [4]): 56 nM | EC50 (84V90M [6]): 535 nM

CCOC(=O)C(C)NP(=O)(COc1ccc(CC(NC(=O)OC2COC3OCCC23)C(O)CN(CC(C)C)S(=O)(=O)c2ccc(OC)cc2)cc1)Oc1ccccc1 (centres unmarked) [GS-16571]
Total No. of Resistant Viruses [5]: 0 | Major Intracellular Metabolites [7]: X,GS-8373

Nc1n[nH]c2ccc(CN3C(=O)N(Cc4cccc(O)c4)C(Cc4ccccc4)C(O)C(O)C3Cc3ccccc3)cc12 (centres unmarked) [m-OH]
Ki [1]: 0.128 nM | IC50 [1]: 1.6 nM | IC50 (84V90M [2]): 12 nM | EC50 (84V90M [6]): 475 nM

O=C1N(Cc2ccccc2)C(Cc2ccccc2)C(O)C(O)C(Cc2ccc(OCP(=O)(OCc3ccccc3)OCc3ccccc3)cc2)N1Cc1ccccc1 (centres unmarked)
IC50 (84V90M [4]): 158 nM

CCOP(=O)(COc1ccc(CN2C(=O)N(Cc3ccc4[nH]nc(N)c4c3)C(Cc3ccccc3)C(O)C(O)C2Cc2ccccc2)cc1)OCC (centres unmarked)
Ki [1]: > 5 nM | IC50 [1]: 627 nM | IC50 (84V90M [2]): 1470 nM | EC50 (84V90M [6]): > 6000 nM

CCOP(=O)(CCNC(=O)Oc1ccc(CC2C(O)C(O)C(Cc3ccc(OC)cc3)N(Cc3cccc(N)c3)C(=O)N2Cc2cccc(N)c2)cc1)OCC (centres unmarked) [OCH3, Ph-mNH2, OCONH(CH2)2PO3Et2]
EC50 ([3]; Human immunodeficiency virus 1, read-out: Cell-based assay (MT-4) EC50/nM 84V90M): 2260 nM | EC50 (WT HIV-1): 74 nM | EC50 ([8]; Human immunodeficiency virus 1, read-out: Cell-based assay (MT-4) EC50/nM 48V54V82A): 262 nM | EC50 ([9]; Human immunodeficiency virus 1, read-out: Cell-based assay (MT-4) EC50/nM 46I50V): 184 nM | EC50 ([10]; Human immunodeficiency virus 1, read-out: Cell-based assay (MT-4) EC50/nM 30N82I88D): 77 nM | EC50 ([11]; Human immunodeficiency virus 1, read-out: Cell-based assay (MT-4) EC50/nM 48V82A90M): 215 nM | EC50 ([12]; Human immunodeficiency virus 1, read-out: Cell-based assay (MT-4) EC50/nM 48V54V82S): 214 nM | IC50 (84V90M [4]): 116 nM

Nc1n[nH]c2ccc(CN3C(=O)N(Cc4ccc(O)cc4)C(Cc4ccccc4)C(O)C(O)C3Cc3ccccc3)cc12 (centres unmarked) [p-OH]
EC50 (30N82I88D; [15]): 79 nM | EC50 (48V54V82A; [16]): 32 nM | EC50 (48V54V82S; Human immunodeficiency virus 1, read-out: EC50 48V54V 82S): 39 nM | EC50 (48V82A90M; Human immunodeficiency virus 1, read-out: EC50 48V82A 90M): 19 nM | EC50 (46I50V; [17]): 55 nM

O=C1N(Cc2ccccc2)C(Cc2ccccc2)C(O)C(O)C(Cc2ccc(OCP(=O)(O)O)cc2)N1Cc1ccccc1 (centres unmarked) [listing 2 of 2 here]
IC50 (84V90M [2]): 48 nM | EC50 (WT; read-out: EC50 WT): 107 nM | EC50 (84V90M [6]): 2460 nM | EC50 (30N82I88D; Cell-based assay (MT-4), 30N82I88D, read-out: EC50 30N 82I88D): 293 nM | EC50 (48V54V82A; Cell-based assay (MT-4), 48V54V82A, read-out: EC50 48V54V 82A): 1440 nM | EC50 (48V54V82S; Cell-based assay (MT-4), 48V54V82S, read-out: EC50 48V54V 82S): 1900 nM | EC50 (48V82A90M; read-out: EC50 48V82A 90M, Cell-based assay (MT-4), 48V82A90M): 3290 nM | EC50 (46I50V; Cell-based assay (MT-4), 46I50V, read-out: EC50 46I50V): 589 nM

COc1ccc(S(=O)(=O)N(CC(C)C)CC(O)C(Cc2ccc(OCP(=O)(OCc3ccccc3)OCc3ccccc3)cc2)NC(=O)OC2COC3OCCC23)cc1 (centres unmarked) [drawing 1768 R1=OBn R2=OBn]
EC50 [13]: < 50 nM | I84V/L90M fold change [3]: − (≦3) | CC50 (MT-2 cells; human): 5000 to 50000 nM

CCOP(=O)(CCNC(=O)Oc1ccc(CC2C(O)C(O)C(Cc3ccc(OC)cc3)N(Cc3ccc(O)cc3)C(=O)N2Cc2ccc(O)cc2)cc1)OCC (centres unmarked) [OCH3, Ph-pOH, OCONH(CH2)2PO3Et2]
IC50 (84V90M [4]): 49 nM

CCOP(=O)(COc1ccc(CC2C(O)C(O)C(Cc3ccc(OC)cc3)N(Cc3ccc(O)cc3)C(=O)N2Cc2ccc(O)cc2)cc1)OCC (centres unmarked) [OCH3, Ph-pOH, OCH2PO3Et2]
EC50 ([3]; MT-4, 84V90M, read-out: Cell-based assay (MT-4) EC50/nM 84V90M): 148 nM | EC50 ([8]; MT-4, 48V54V82A, read-out: Cell-based assay (MT-4) EC50/nM 48V54V82A): 70 nM | EC50 ([9]; MT-4, 46I50V, read-out: Cell-based assay (MT-4) EC50/nM 46I50V): 90 nM | EC50 ([10]; MT-4, 30N82I88D, read-out: Cell-based assay (MT-4) EC50/nM 30N82I88D): 25 nM | EC50 ([11]; MT-4, 48V82A90M, read-out: Cell-based assay (MT-4) EC50/nM 48V82A90M): 54 nM | EC50 ([12]; MT-4, 48V54V82S, read-out: Cell-based assay (MT-4) EC50/nM 48V54V82S): 129 nM

COc1ccc(S(=O)(=O)N(Cc2ccccc2)CC(O)C(Cc2ccccc2)NC(=O)OC2COC3OCCC23)cc1 (centres unmarked)
EC50 (HIV): < 50 nM | I50V (#1) fold change (I50V (#1)): +++ | I84V/L90M fold change (I84V/L90M): +++

From patent US20070010489A1 (priority 2002, published 2007)
